Test results taken from patent publication US20180118722A1, “NOVEL ARYL-CYANOGUANIDINE COMPOUNDS” (Bayer Pharma Aktiengesellschaft, priority 2015, published 2018).

How the values were obtained:
SMYD2 [1] = biological target: T1, SMYD2 (Homo sapiens, UniProt Q9NRG4); assay: Scintillation proximity assay (SPA) for detection of SMYD2 enzymatic inhibition; format: biochemical; design: The SMYD2 full length enzyme was produced in-house by expression (with an N-terminal 6×His tag) in E. coli; 6xHis (N); made in house; host or cells: E. coli; details: p53 Peptide substrate 1.0 μM, 3H-SAM 60 nM, 30 min at 22° C.; read-out: IC50 [mol/l] (SPA Assay)
From the text: 1.1 Scintillation Proximity Assay (SPA) for Detection of SMYD2 Enzymatic Inhibition
SMYD2 inhibitory activities of the compounds described in the present invention were quantified using a scintillation proximity assay (SPA) which measures methylation by the enzyme of the synthetic, biotinylated peptide Btn-Ahx-[…]−Amid×TFA (Biosyntan) derived from p53 and referred to from here on as “p53 Peptide”. The SMYD2 full length enzyme was produced in-house by expression (with an N-terminal 6×His tag) in E. coli and purification by affinity chromatography on a Ni-NTA Sepharose column followed by a size exclusion chromatography step on a Superdex 200 16/60 column (GE Healthcare).
In a typical assay 11 different concentrations of each compound (0.1 nM, 0.33 nM, 1.1 nM, 3.8 nM, 13 nM, 44 nM, 0.15 μM, 0.51 μM, 1.7 μM, 5.9 μM and 20 μM) were tested in duplicate within the same microtiter plate. To this end, 100-fold concentrated compound solutions (in DMSO) were previously prepared by serial dilution (1:3.4) of 2 mM stocks in a clear low volume 384-well source microtiter plate (Greiner Bio-One), from which 50 nl of compound solutions were transferred into a white low volume test microtiter plate from the same supplier. […] IC50 values were calculated by fitting the normalized inhibition data to a 4-parameter logistic equation using the “Screener” analysis software from Genedata.

SMYD2 [2] = biological target: T1, SMYD2; assay: In Cell Western (ICW) cell-based assay for detection of SMYD2 methylation activity (p53K370me1) in SMYD2 overexpressing KYSE-150 cells; design: expressed in transfected cells; host or cells: KYSE-150 (human esophageal carcinoma, DSMZ ACC 375); details: 72 h treatment, p53K370me1 signal, read-out: IC50 [mol/l] (ICW assay)
From the text: 1.2 Cell-Based Assay for Detection of SMYD2 Methylation Activity
For the detection of SMYD2 cellular methylation activity an In Cell Western (ICW) assay was established. This assay allows rapid processing of multiple samples for SMYD2 methylation derived immunofluorescence signals, with normalization to cell number via the use of the nucleic acid dye DRAQS. KYSE-150 cells (human esophageal carcinoma cell line; DSMZ-German Collection of Microorganisms and Cell Cultures; No: ACC 375) have been stably transfected with a construct expressing wild-type SMYD2 (NCBI Reference Sequence: NP_064582.2). […]
For conducting the ICW assay 5000 SMYD2 overexpressing KYSE-150 cells/well were seeded in 96-well plates (SIGMA) and cultivated for 24 h. […] After 5 washes with PBS, the fluorescence in each well was measured on an Odyssey (LI-COR) scanner at 800 nm (p53K370me1 signal; 764 nm excitation) and 700 nm (DRAQS signal; 683 nm excitation). Fluorescence intensity was quantified and normalized to background and DRAQS signals. IC50 values were calculated by fitting the normalized inhibition data to a 4-parameter logistic equation (Minimum, Maximum, IC50, Hill; Y=Max+(Min−Max)/(1+(X/IC50)Hill)) for each tested compound. For IC50 determination C0 (=no inhibition) was defined as the signal measured for DMSO treated controls. […]

T1 sequence (Q9NRG4 whole entry): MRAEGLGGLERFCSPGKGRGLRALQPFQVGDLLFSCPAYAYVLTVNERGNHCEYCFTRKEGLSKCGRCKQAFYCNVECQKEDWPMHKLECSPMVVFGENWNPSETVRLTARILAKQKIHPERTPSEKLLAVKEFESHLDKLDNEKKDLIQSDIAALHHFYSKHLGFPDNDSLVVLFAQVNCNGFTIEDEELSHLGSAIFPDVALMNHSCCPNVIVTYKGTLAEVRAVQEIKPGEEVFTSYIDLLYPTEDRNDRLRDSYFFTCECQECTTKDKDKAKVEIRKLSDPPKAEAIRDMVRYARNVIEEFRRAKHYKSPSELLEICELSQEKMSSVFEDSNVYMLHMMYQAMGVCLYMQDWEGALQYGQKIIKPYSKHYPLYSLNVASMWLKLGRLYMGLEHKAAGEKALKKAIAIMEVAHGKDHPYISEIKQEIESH

| IC50 (SMYD2 [1]) | IC50 (SMYD2 [2]) | Compound |
| --- | --- | --- |
| 31.6 nM | 100 nM | N#C/N=C(/Nc1cccc(OC(F)F)c1)N1CC(N2CCCC(N)C2=O)C(c2ccc(Cl)c(Cl)c2)=N1 (stereo not shown) [Example 1, 4-(3-amino-2-oxopiperidin-1-yl)-N′-cyano-3-(3 ,4-dichlorophenyl)-N-[3-(difluoromethoxy)phenyl]-4,5-dihydro-1H-pyrazole-1-carboximidamide] |
| 302 nM | 171 nM | N#C/N=C(/Nc1cccc(OC(F)F)c1)N1CC(N2CCC(N)C2=O)C(c2ccc(Cl)c(Cl)c2)=N1 (stereo not shown) [Example 2, 4-(3-amino-2-oxopyrrolidin-1-yl)-N′-cyano-3-(3,4-dichlorophenyl)-N-[3-(difluoromethoxy)phenyl]-4,5-dihydro-1H-pyrazole-1-carboximidamide] |
